Source: PubChem BioAssay AID1963851 (Molecular Pharmacology Branch, DTP, NCI, 2024)

System: 188146-221-R-J1-PDC complex spheroid viability
Assay: Anticancer human tumor 188146-221-R-J1-PDC patient-derived colon adenocarcinoma cell line growth inhibition [POLQ]
Settings: for IC50: curve of first compound; for viability, T/C: stronger effect = lower value
Procedure, shortened: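 Complex spheroid viability model combining PDC tumour cells with endothelial (HUVEC) and MSC stromal cells. Novobiocin, ART-558 or RP6685 were tested singly and in combination with standard and investigational anticancer drugs. Each was titrated in half-log steps from near clinical Cmax, or from 10 microM where Cmax was unknown.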

[1] = second compound 0.0316 µM, first compound 0.0316 µM
[2] = second compound 0.0316 µM, first compound 0.1 µM
[3] = second compound 0.0316 µM, first compound 0.316 µM
[4] = second compound 0.0316 µM, first compound 1 µM
[5] = second compound 0.0316 µM, first compound 3.16 µM
[6] = second compound 0.0316 µM, first compound 10 µM
[7] = second compound 0.1 µM, first compound 0.0316 µM
[8] = second compound 0.1 µM, first compound 0.1 µM
[9] = second compound 0.1 µM, first compound 0.316 µM
[10] = second compound 0.1 µM, first compound 1 µM
[11] = second compound 0.1 µM, first compound 3.16 µM
[12] = second compound 0.1 µM, first compound 10 µM
[13] = second compound 0.316 µM, first compound 0.0316 µM
[14] = second compound 0.316 µM, first compound 0.1 µM
[15] = second compound 0.316 µM, first compound 0.316 µM
[16] = second compound 0.316 µM, first compound 1 µM
[17] = second compound 0.316 µM, first compound 3.16 µM
[18] = second compound 0.316 µM, first compound 10 µM
[19] = second compound 1 µM, first compound 0.0316 µM
[20] = second compound 1 µM, first compound 0.1 µM
[21] = second compound 1 µM, first compound 0.316 µM
[22] = second compound 1 µM, first compound 1 µM
[23] = second compound 1 µM, first compound 3.16 µM
[24] = second compound 1 µM, first compound 10 µM
[25] = second compound 3.16 µM, first compound 0.0316 µM
[26] = second compound 3.16 µM, first compound 0.1 µM
[27] = second compound 3.16 µM, first compound 0.316 µM
[28] = second compound 3.16 µM, first compound 1 µM
[29] = second compound 3.16 µM, first compound 3.16 µM
[30] = second compound 3.16 µM, first compound 10 µM
[31] = second compound 10 µM, first compound 0.0316 µM
[32] = second compound 10 µM, first compound 0.1 µM
[33] = second compound 10 µM, first compound 0.316 µM
[34] = second compound 10 µM, first compound 1 µM
[35] = second compound 10 µM, first compound 3.16 µM
[36] = second compound 10 µM, first compound 10 µM
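Also: spheroids exposed to compounds for seven days.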
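For viability, T/C in this document: 100% = DMSO vehicle control viability.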

C=CC(=O)N1CCN(c2nc(=O)n(-c3c(C)ccnc3C(C)C)c3nc(-c4c(O)cccc4F)c(F)cc23)C(C)C1 (centres undefined) + COC1C(OC(N)=O)C(O)C(Oc2ccc3c(O)c(NC(=O)c4ccc(O)c(CC=C(C)C)c4)c(=O)oc3c2C)OC1(C)C
IC50 (second compound 0.0316 µM): > 10 µM
IC50 (second compound 0.1 µM): > 10 µM
IC50 (second compound 0.316 µM): > 10 µM
IC50 (second compound 1 µM): > 10 µM
IC50 (second compound 3.16 µM): > 10 µM
IC50 (second compound 10 µM): > 10 µM
viability, T/C [1]: 103%
viability, T/C [2]: 97%
viability, T/C [3]: 85.7%
viability, T/C [4]: 99.1%
viability, T/C [5]: 98.7%
viability, T/C [6]: 72.4%
viability, T/C [7]: 107%
viability, T/C [8]: 107%
viability, T/C [9]: 94.6%
viability, T/C [10]: 105%
viability, T/C [11]: 88.1%
viability, T/C [12]: 92.6%
viability, T/C [13]: 110%
viability, T/C [14]: 107%
viability, T/C [15]: 103%
viability, T/C [16]: 110%
viability, T/C [17]: 95.3%
viability, T/C [18]: 83.6%
viability, T/C [19]: 93.2%
viability, T/C [20]: 105%
viability, T/C [21]: 113%
viability, T/C [22]: 101%
viability, T/C [23]: 101%
viability, T/C [24]: 90.4%
viability, T/C [25]: 107%
viability, T/C [26]: 109%
viability, T/C [27]: 100%
viability, T/C [28]: 101%
viability, T/C [29]: 90.3%
viability, T/C [30]: 87.2%
viability, T/C [31]: 96%
viability, T/C [32]: 107%
viability, T/C [33]: 108%
viability, T/C [34]: 97.5%
viability, T/C [35]: 115%
viability, T/C [36]: 93.7%

CC(C)n1c(=O)n(C)c2cnc3cc(F)c(-c4ccc(OCCCN5CCCCC5)nc4)cc3c21 + COC1C(OC(N)=O)C(O)C(Oc2ccc3c(O)c(NC(=O)c4ccc(O)c(CC=C(C)C)c4)c(=O)oc3c2C)OC1(C)C
IC50 (second compound 0.0316 µM): > 10 µM
IC50 (second compound 0.1 µM): > 10 µM
IC50 (second compound 0.316 µM): > 10 µM
IC50 (second compound 1 µM): > 10 µM
IC50 (second compound 3.16 µM): > 10 µM
IC50 (second compound 10 µM): > 10 µM
viability, T/C [1]: 103%
viability, T/C [2]: 105%
viability, T/C [3]: 101%
viability, T/C [4]: 97.6%
viability, T/C [5]: 94.6%
viability, T/C [6]: 82.9%
viability, T/C [7]: 103%
viability, T/C [8]: 95.8%
viability, T/C [9]: 106%
viability, T/C [10]: 98%
viability, T/C [11]: 93.3%
viability, T/C [12]: 82%
viability, T/C [13]: 99.6%
viability, T/C [14]: 104%
viability, T/C [15]: 94.7%
viability, T/C [16]: 89.8%
viability, T/C [17]: 81.3%
viability, T/C [18]: 96.2%
viability, T/C [19]: 96.8%
viability, T/C [20]: 101%
viability, T/C [21]: 103%
viability, T/C [22]: 102%
viability, T/C [23]: 102%
viability, T/C [24]: 86.8%
viability, T/C [25]: 98.8%
viability, T/C [26]: 101%
viability, T/C [27]: 93.4%
viability, T/C [28]: 96.1%
viability, T/C [29]: 108%
viability, T/C [30]: 88.7%
viability, T/C [31]: 107%
viability, T/C [32]: 101%
viability, T/C [33]: 109%
viability, T/C [34]: 93.7%
viability, T/C [35]: 113%
viability, T/C [36]: 90.9%
